Columns and labels:
[1] = molecular target: T1, L-ornithine N(5)-monooxygenase (Aspergillus fumigatus (strain ATCC MYA-4609 / CBS 101355 / FGSC A1100 / Af293), UniProt E9QYP0); assay: SidA Activity Assay; details: pH 7.5
Method: Briefly, this assay consists of the formation of nitrite from hydroxyl amine that is quantified by formation of a chromophore with α-naphthylamine, which has an absorbance maximum at 529 nm. Formation of HO-Orn was quantified using a standard curve with hydroxylamine (25−350 μM). The standard assay contained 25 μL of 100 mM sodium phosphate (pH 7.5), 1 μM SidA, 500 μM L-Orn, and 250 μM NADPH for activity and IC50 determinations. Compound concentration was varied from 0.01 to 1 mM, and the reaction mix contained a final DMSO concentration of 10%. The reaction was started with the addition of NADPH, allowed to proceed for 20 min atRT, and quenched with 13 μL of 2 N HClO4. To identify compounds that caused inhibition by inducing protein aggregation, the IC50 was determined in 100 mM phosphate buffer, pH 7.5, containing 0.1% v/v Triton X-100.23 As some compounds had either an increase or decrease in the color development or had absorbance at a visi

[2] = molecular target: T1, L-ornithine N(5)-monooxygenase; assay: ADP-TAMRA Binding Assay; details: pH 7
Method: The 96 well plates were used, and the reaction volume was 25 μL using 50 mM sodium phosphate buffer (pH 7.0). For the screening, 30 nM of ADP-TAMRA with 2 μM SidA (based on the Bradford assay) and 20 μM of library compound were used, withthe final DMSO concentration at 2%. Fluorescence polarization measurements were performed with excitation at 544 nm and emission at 584 nm, using a wavelength cutoff of 570 nm. Anisotropy values were normalized to the values obtained in the negative control sample: SidA, ADP-TAMRA, and DMSO. The positive control consisted of ADP-TAMRA and DMSO.

T1 sequence (E9QYP0 whole entry): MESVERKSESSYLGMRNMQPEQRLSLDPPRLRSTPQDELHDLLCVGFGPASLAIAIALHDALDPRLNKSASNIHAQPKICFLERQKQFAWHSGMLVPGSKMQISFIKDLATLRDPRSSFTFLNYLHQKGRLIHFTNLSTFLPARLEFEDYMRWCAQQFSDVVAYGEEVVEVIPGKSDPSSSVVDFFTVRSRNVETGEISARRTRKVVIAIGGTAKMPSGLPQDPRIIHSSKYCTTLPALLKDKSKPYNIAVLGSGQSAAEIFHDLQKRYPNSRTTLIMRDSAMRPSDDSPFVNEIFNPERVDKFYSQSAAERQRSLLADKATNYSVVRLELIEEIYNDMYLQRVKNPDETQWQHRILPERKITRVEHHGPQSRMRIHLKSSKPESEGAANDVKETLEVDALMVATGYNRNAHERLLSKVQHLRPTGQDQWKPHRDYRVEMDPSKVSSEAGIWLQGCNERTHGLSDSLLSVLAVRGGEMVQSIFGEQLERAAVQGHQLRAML

CC1=C(O)C(=O)C=C2C1=CC=C1[C@@]2(C)CC[C@@]2(C)[C@@H]3C[C@](C)(C(=O)O)CC[C@]3(C)CC[C@]12C [Celastrol] showed an IC50 [1] of 11 µM and a Kd [2] of 1.4 µM.

From BindingDB's records for doi:10.1021/acschembio.6b00666 (Virginia Tech, 2016)
